The values that follow come from PubChem BioAssay (NCI).

Molecules are shown by their SMILES. Values joined by “and” are separate entries in the source; they are usually repeats but may differ in a detail not shown here. Identical values can stand only once.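 Compound exposure: 48 hours, 5 concentrations, 96-well plates. GI50: concentration for 50% inhibition of growth. Definition used: TGI = concentration required for complete inhibition of growth.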

Among the test systems are HL-60(TB) leukemia; CAKI-1 renal; SK-MEL-2 melanoma; NCI-H522 lung; EKVX NSCLC; U251 CNS; SF-295 CNS; RPMI-8226 leukemia; UACC-62 melanoma; HS 578T breast.
Holding throughout (test): growth of human tumour cells (NCI), 48 h

Consider `CC1CCC2N(C1)CC1C3(O)CC45OC6(O)C(O)CCC4(C)C6CCC5C3(O)CC(O)C1(O)C2(C)O` (configuration not stated), for which the TGI in the test with HL-60(TB) leukemia, in the test with CAKI-1 renal, in the test on SK-MEL-2 melanoma, with NCI-H522 lung, in the test with EKVX NSCLC and in the test with U251 CNS was greater than 100 µM in each case. In addition, the TGI in the test on SF-295 CNS, in the test on RPMI-8226 leukemia, in the test on UACC-62 melanoma and in the test with HS 578T breast was greater than 100 µM each time.
For the compound `CC(=O)N(Cc1ccccc1)c1ccccc1I(=O)=O`, the GI50 in the test with HL-60(TB) leukemia is 14.9 µM; in the test with CAKI-1 renal it was 42.2 µM; with SK-MEL-2 melanoma, 63.6 µM; in the test with NCI-H522 lung it was 22.4 µM; in the test with EKVX NSCLC, 88.5 µM; in the test on U251 CNS, 34.5 µM. Moreover, the GI50 in the test with SF-295 CNS is 48.3 µM; with RPMI-8226 leukemia it was 15.7 µM; in the test with UACC-62 melanoma, greater than 100 µM; with HS 578T breast it was greater than 100 µM. Moreover, the TGI is 50.8 µM in the test with HL-60(TB) leukemia; greater than 100 µM in the test on CAKI-1 renal; greater than 100 µM in the test on SK-MEL-2 melanoma; greater than 100 µM in the test with NCI-H522 lung; greater than 100 µM with EKVX NSCLC; greater than 100 µM in the test on U251 CNS. Further, the TGI in the test on SF-295 CNS is greater than 100 µM; in the test on RPMI-8226 leukemia, 32.7 µM; with UACC-62 melanoma, greater than 100 µM; in the test on HS 578T breast, greater than 100 µM.
Consider `CC1=C(C(=O)Nc2ccc(Cl)c(Cl)c2)C(c2ccccc2O)NC(=O)N1` (configuration not stated), for which the GI50 was greater than 50 µM with HL-60(TB) leukemia; greater than 50 µM in the test on CAKI-1 renal; greater than 50 µM with SK-MEL-2 melanoma; greater than 50 µM in the test on NCI-H522 lung; 28.6 µM in the test on EKVX NSCLC; greater than 50 µM with U251 CNS. In addition, the GI50 in the test with SF-295 CNS is 40.3 µM; in the test on RPMI-8226 leukemia it was 34.8 µM; in the test with UACC-62 melanoma it was 35.1 µM; in the test on HS 578T breast it was 32.2 µM. Moreover, the TGI with HL-60(TB) leukemia, with CAKI-1 renal, in the test on SK-MEL-2 melanoma, in the test with NCI-H522 lung, in the test with EKVX NSCLC and with U251 CNS was greater than 50 µM in each case. The TGI in the test on SF-295 CNS, in the test with RPMI-8226 leukemia, in the test with UACC-62 melanoma and with HS 578T breast was greater than 50 µM in each case.
Take `OCNCCNc1nc2ccccc2c2[nH]c3ccccc3c12`: the GI50 in the test on HL-60(TB) leukemia was 1.31 µM; with CAKI-1 renal, 2.01 µM; with SK-MEL-2 melanoma it was 2.25 µM; in the test with NCI-H522 lung, 1.55 µM; in the test with EKVX NSCLC it was 1.18 µM; in the test with U251 CNS, 0.506 µM. Further, the GI50 was 1.41 µM in the test on SF-295 CNS, 0.84 µM with RPMI-8226 leukemia, 2 µM with UACC-62 melanoma and 1.46 µM in the test on HS 578T breast. In addition, the TGI in the test on HL-60(TB) leukemia was 3.93 µM; in the test on CAKI-1 renal, 7.38 µM; in the test on SK-MEL-2 melanoma, 24 µM; in the test on NCI-H522 lung it was greater than 50 µM; with EKVX NSCLC, 3.25 µM; with U251 CNS it was 1.9 µM. Also, the TGI with SF-295 CNS is 5.97 µM; with RPMI-8226 leukemia, 2.01 µM; in the test with UACC-62 melanoma it was 7.5 µM; in the test with HS 578T breast, 3.87 µM.
Regarding `COc1cccc(C2NC(=S)NC(C)=C2C(=O)Nc2ccc(Cl)c(Cl)c2)c1` (configuration not stated), the GI50 with HL-60(TB) leukemia is greater than 50 µM; in the test on CAKI-1 renal, 9.69 µM; with SK-MEL-2 melanoma, 15.7 µM; with NCI-H522 lung, 18.3 µM; in the test on EKVX NSCLC, 5.63 µM; with U251 CNS, greater than 50 µM. Moreover, the GI50 in the test on SF-295 CNS was 9.72 µM; in the test with RPMI-8226 leukemia it was 21 µM; in the test with UACC-62 melanoma it was 8.2 µM; in the test with HS 578T breast, 10.7 µM. The TGI with HL-60(TB) leukemia is greater than 50 µM; in the test with CAKI-1 renal, 22 µM; with SK-MEL-2 melanoma, greater than 50 µM; in the test on NCI-H522 lung, greater than 50 µM; in the test with EKVX NSCLC, 14.3 µM; in the test with U251 CNS it was greater than 50 µM. Also, the TGI was 21.6 µM in the test with SF-295 CNS, greater than 50 µM in the test on RPMI-8226 leukemia, 15.9 µM in the test with UACC-62 melanoma and 28.8 µM in the test on HS 578T breast.
Turning to `Nc1ccc(S(=O)(=O)Nc2cnc3c(Cl)cccc3n2)cc1`, the GI50 in the test with HL-60(TB) leukemia is greater than 75 µM; in the test with CAKI-1 renal, 99.2 µM; in the test on NCI-H522 lung it was 15.2 µM; in the test on U251 CNS, 68 µM; in the test with RPMI-8226 leukemia, greater than 95.1 µM; with UACC-62 melanoma, 56.3 µM. Moreover, the GI50 in the test with HS 578T breast is 16.3 µM. Also, the TGI in the test with HL-60(TB) leukemia was 637 µM; in the test with CAKI-1 renal, greater than 698 µM; in the test with SK-MEL-2 melanoma it was 707 µM; in the test on NCI-H522 lung it was 75 µM and 259 µM; in the test on EKVX NSCLC, 712 µM; in the test with U251 CNS it was greater than 750 µM. The TGI was 737 µM with SF-295 CNS; greater than 705 µM in the test on RPMI-8226 leukemia; > 93.3 µM and 122 µM in the test on UACC-62 melanoma; > 79.5 µM and 504 µM with HS 578T breast.
`O=c1[nH]c2ccccc2n1-c1n[nH]c2ccccc12`: the GI50 is 12.1 µM in the test with HL-60(TB) leukemia; 25.3 µM with CAKI-1 renal; 29.3 µM in the test on SK-MEL-2 melanoma; 19.7 µM with NCI-H522 lung; 29.7 µM in the test with EKVX NSCLC; 31.3 µM in the test with U251 CNS. Further, the GI50 in the test with SF-295 CNS is 25.4 µM; in the test with RPMI-8226 leukemia, 17.6 µM; in the test on UACC-62 melanoma, 33.6 µM; in the test with HS 578T breast it was 23 µM. For the same compound, the TGI in the test with HL-60(TB) leukemia is 43.2 µM; in the test with CAKI-1 renal it was greater than 100 µM; with SK-MEL-2 melanoma, greater than 100 µM; in the test on NCI-H522 lung, 48.7 µM; in the test on EKVX NSCLC, greater than 100 µM; with U251 CNS, greater than 100 µM. Also, the TGI in the test on SF-295 CNS was 59.8 µM; in the test on RPMI-8226 leukemia, 64.6 µM; with UACC-62 melanoma, 96.7 µM; in the test on HS 578T breast, greater than 100 µM.
Consider `O=C(NCCCCCCCNC(=O)OCc1ccc2c(Cl)cc(Cl)c(O)c2n1)OCc1ccc2c(Cl)cc(Cl)c(O)c2n1`, for which the GI50 in the test on HL-60(TB) leukemia was 0.47 µM; with CAKI-1 renal, 0.378 µM; with SK-MEL-2 melanoma, 1.33 µM; in the test with NCI-H522 lung, 0.303 µM; in the test on EKVX NSCLC, 1.55 µM; in the test on U251 CNS, 1.6 µM. Besides, the GI50 is 1.73 µM in the test on SF-295 CNS, 0.247 µM in the test on RPMI-8226 leukemia, 0.845 µM with UACC-62 melanoma and 1.4 µM in the test with HS 578T breast. Besides, the TGI is 1.97 µM with HL-60(TB) leukemia; 1.55 µM in the test with CAKI-1 renal; 2.78 µM in the test with SK-MEL-2 melanoma; 1.15 µM in the test with NCI-H522 lung; 3.22 µM in the test with EKVX NSCLC; 3.09 µM in the test on U251 CNS. Besides, the TGI was 3.41 µM with SF-295 CNS, 0.735 µM with RPMI-8226 leukemia, 2.13 µM in the test with UACC-62 melanoma and 5.35 µM with HS 578T breast.
